± gives the expanded uncertainty stated by the source.
Settings: Crystal; DTA

Normal melting temperature: 281.00 ± 0.5 °C
SMILES: Nc1ccc(O)c(C(=O)O)c1 [5-aminosalicylic acid]

Reference: the NIST ThermoML archive (doi:10.1021/je900646u)
